Results taken from US4454139A, “α2 -Adrenoceptor antagonistic benzoquinolizines” (John Wyeth & Brother, Limited, priority 1980, dated 1984).

Assays:
[1] = system: postsynaptic (α1) α-adrenoceptor; test: postsynaptic (α1) antagonistic activity on the isolated anococcygeus muscle of the rat (phenylephrine or methoxamine agonist); assay type: cell-based
From the text: (§1) The postsynaptic(α1)antagonistic activity can be evaluated by a number of different methods. One method involves assessing the activity on the isolated anococcygeus muscle of the rat. The method is based on that of Gillespie, Br.J.Pharmac., 1972, 45, 404-416. In the procedure male rats (250-360 g) are killed by a blow on the head and bled. The two anococcygeus muscles are removed from their position in the midline of the pelvic cavity, where they arise from the upper coccygeal vertebrae. The muscles are suspended in 5 ml organ baths in Krebs solution containing 10^-4 M ascorbic acid, to prevent drug oxidation. The tissues are gassed with a 95% oxygen, 5% CO2 mixture and maintained at 37°. Longitudinal muscle contractions are recorded using isotonic transducers. Cumulative dose response curves are then obtained to phenylephrine or in some cases methoxamine, both agents being postsynaptic alpha adrenoceptor agonists. The concentration range of phenylephrine or methoxamine used is 0.02 to 0.8 μg.ml^-1. The agonist is then washed from the bath and the test drug added to the bathing medium at a concentration of 10^-6 M. After 30 min. equilibration with the test drug a further agonist dose response curve is obtained. The washing, equilibration and agonists dosing procedures are then repeated using 10^-5 M and 10^-4 M solutions of the test drug. Estimates of the pA2 value for the test drug as an antagonist of phenylephrine or methoxamine were made from the agonist dose-ratios using the method of Arunlakshana & Schild, Br.J.Pharmac.Chemother., 1959, 14, 48-58.

[2] = target: T1, postsynaptic (α1) α-adrenoceptor (Rattus norvegicus, UniProt P43140); test: as above; assay type: cell-based; conditions: rat anococcygeus muscle; phenylephrine or methoxamine as agonist; α1; read-out: pA2 (postsynaptic) (converted)
T1 construct: the isolated anococcygeus muscle of the rat; from tissue; host or cells: rat anococcygeus muscle (male rats, 250-360 g)
T1 sequence (P43140 1-466): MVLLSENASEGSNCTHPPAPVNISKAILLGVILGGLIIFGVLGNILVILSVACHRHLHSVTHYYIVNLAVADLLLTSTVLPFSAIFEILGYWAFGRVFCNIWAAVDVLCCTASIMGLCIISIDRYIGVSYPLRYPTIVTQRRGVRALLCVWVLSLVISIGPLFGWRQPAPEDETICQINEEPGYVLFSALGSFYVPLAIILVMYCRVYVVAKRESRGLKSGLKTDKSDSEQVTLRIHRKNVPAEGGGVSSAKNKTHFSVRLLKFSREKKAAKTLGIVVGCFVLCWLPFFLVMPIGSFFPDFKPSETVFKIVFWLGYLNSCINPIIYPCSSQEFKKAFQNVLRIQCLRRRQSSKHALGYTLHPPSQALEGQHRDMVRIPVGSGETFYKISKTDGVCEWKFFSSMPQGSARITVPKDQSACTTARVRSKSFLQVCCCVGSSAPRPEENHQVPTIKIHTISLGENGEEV
From the text: as §1

[3] = system: hyperglycaemia induced by the α2 agonist clonidine; test: inhibition of clonidine-induced hyperglycaemia in rats; assay type: in vivo, rat; conditions: 10 mg/kg, clonidine 15 μg/kg subcutaneous
[4] = target: T2, α2 (presynaptic α)-adrenoceptor (Rattus norvegicus, UniProt P22909); test: α2-adrenoceptor antagonistic activity on the rat field stimulated vas deferens preparation (clonidine agonist); assay type: cell-based; conditions: clonidine as agonist, Arunlakshana & Schild; for Kb: read-out: pA2 (α2) (converted); for pA2 (α2): 90 min
T2 construct: from tissue; host or cells: rat vas deferens (desheathed, field stimulated)
T2 sequence (P22909 1-465): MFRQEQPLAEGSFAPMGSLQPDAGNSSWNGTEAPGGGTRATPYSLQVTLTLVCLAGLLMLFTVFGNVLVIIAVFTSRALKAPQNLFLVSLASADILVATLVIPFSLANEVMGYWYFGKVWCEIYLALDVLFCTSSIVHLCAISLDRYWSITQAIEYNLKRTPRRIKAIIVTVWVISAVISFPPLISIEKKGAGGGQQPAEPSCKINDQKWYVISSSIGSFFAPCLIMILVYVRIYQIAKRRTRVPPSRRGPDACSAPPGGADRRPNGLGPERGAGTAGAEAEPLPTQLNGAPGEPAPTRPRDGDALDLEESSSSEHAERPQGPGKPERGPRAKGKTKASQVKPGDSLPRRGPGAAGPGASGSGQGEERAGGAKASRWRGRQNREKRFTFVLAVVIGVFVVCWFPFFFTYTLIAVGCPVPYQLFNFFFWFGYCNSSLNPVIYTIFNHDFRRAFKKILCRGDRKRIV
Method: The compounds of the invention were tested for their α2 -adrenoceptor antagonistic activity on the rat field stimulated vas deferens preparation using a modification of the method of Drew, Eur.J.Pharmac., 1977, 42, 123-130. The procedure is described below. […] from sexually mature rats were suspended in a 6 ml organ bath in Krebs solution at 37° and bubbled with 5% CO2 in oxygen. Platinum ring electrodes were positioned above and below the tissue for field stimulation, the stimulus parameters being 0.1 Hz 1 ms pulse width at supramaximal voltage. Twitch responses were recorded isotonically with a 0.5 g loading. […] After washing out clonidine, the twitch response quickly recovered and an antagonist was then introduced into the Krebs reservoir. Clonidine concentration-response curves were repeated 90 min after introduction of the antagonist. The concentration of clonidine producing 50% inhibition of twitch before and after introduction of antagonist were obtained and the dose-ratio for clonidine was calculated. Various concentrations of the antagonists were used. […] Chemother., 1959, 14, 48-58 and the values of pA2 and slope were calculated.

[5] = system: human blood platelets; test: inhibition of adrenaline-induced aggregation in vitro of human blood platelets; assay type: cell-based
[6] = system: rats rendered hypertensive by implantation of desoxycorticosterone acetate; test: hypotensive activity in rats rendered hypertensive by implantation of desoxycorticosterone acetate; assay type: in vivo, rat

Row | SMILES | α2 selectivity [1] | Kb [2] [nM] | inhibition of the hyperglycaemia induced by clonidine [3] | Kb [4] [nM] | inhibition of the aggregation in vitro of human blood platelets induced by adrenaline [5] | pA2 (α2) [4] | hypotensive activity [6]
1 | CC(C)CS(=O)(=O)N(C)[C@@H]1CCN2CCc3ccccc3[C@@H]2C1 (relative stereo) [L, N-Methyl-N-(1,3,4,6,7,11bα-hexahydro-2H-benzo[a]quinolizin-2β-yl)-isobutanesulphonamide] | 93 | 324 | inhibited the hyperglycaemia | 3.16 |  |  | 
2 | COc1cc2c(cc1OC)[C@@H]1C[C@H](N(C)S(C)(=O)=O)CCN1CC2 (relative stereo) [N--methyl-N--(9,10-dimethoxy-1,3,4,6,7,11bα-hexahydro-2H--benzo[a]quinolizin-2β-yl)-methanesulphonamide, reference compound] |  |  |  | 158 |  |  | 
3 | Cc1ccccc1S(=O)(=O)N(C)[C@@H]1CCN2CCc3ccccc3[C@@H]2C1 (relative stereo) [I, N-Methyl-N-(1,3,4,6,7,11bα-hexahydro-2H-benzo[a]quinolizin-2β-yl)-2-methylbenzenesulphonamide] | 40 | 537 |  | 12.6 |  |  | 
4 | O=C(Nc1ccccc1)NC1CCN2CCc3ccccc3C2C1 (centres unmarked) [1-(1,3,4,6,7,11b-hexahydro-2H benzo[a]quinolizin-2yl)-3-phenyl urea, reference compound] |  |  |  | 3980 |  |  | 
5 | CCCS(=O)(=O)N[C@@H]1CCN2CCc3ccccc3[C@@H]2C1 (relative stereo) [2β-(n-propanesulphonamido-1,3,4,6,7,11bα-hexahydro-2H--benzo[a]quinolizine, reference compound] |  |  |  | 316 |  |  | 
6 | CN([C@@H]1CCN2CCc3ccccc3[C@@H]2C1)S(=O)(=O)c1ccccc1 (relative stereo) [D, N-methyl-N-(1,3,4,6,7,11bα-hexahydro-2H-benzo[a]quinolizin-2β-yl)benzenesulphonamide] | 102 | 457 | inhibited the hyperglycaemia | 3.98 |  |  | 
7 | CCCCS(=O)(=O)N(C)[C@@H]1CCN2CCc3ccccc3[C@@H]2C1 (relative stereo) [K, N-Methyl-N-(1,3,4,6,7,11bα-hexahydro-2H-benzo[a]quinolizin-2β-yl)-n-butanesulphonamide] | 19 | 251 |  | 12.6 |  |  | 
8 | CN([C@@H]1CCN2CCc3ccccc3[C@@H]2C1)S(=O)(=O)c1ccc(Cl)c(Cl)c1 (relative stereo) [J, N-Methyl-N-(1,3,4,6,7,11bα-hexahydro-2H-benzo[a]quinolizin-2β-yl)-3,4-dichlorobenzenesulphonamide] | 93 | 3310 |  | 31.6 |  |  | 
9 | CS(=O)(=O)NC1CCN2CCc3ccccc3C2C1 (centres unmarked) [2-methanesulphonamido-1,3,4,6,7,11b-hexahydro-2H--benzo[a]quinolizine, reference compound] |  |  |  | 126 |  |  | 
10 | CCCS(=O)(=O)N(C)[C@@H]1CCN2CCc3ccccc3[C@@H]2C1 (relative stereo) [C, N-Methyl-N-(1,3,4,6,7,11bα-hexahydro-2H-benzo[a]quinolizin-2β-yl)propan-1-sulphonamide] | 144 | 724 |  | 5.01 | inhibit the aggregation |  | 
11 | CCN([C@@H]1CCN2CCc3ccccc3[C@@H]2C1)S(C)(=O)=O (relative stereo) [E, N--Ethyl-N--(1,3,4,6,7,11bα-hexahydro-2H--benzo[a]quinolizin-2-62-yl)methanesulphonamide] | 35.5 | 562 |  | 15.8 |  |  | 
12 | O=S(=O)(NC1CCN2CCc3ccccc3C2C1)c1ccccc1 (stereo not drawn) [2β-phenylsulphonamido-1,3,4,6,7,11b-hexahydro-2H--benzo[a]quinolizine, reference compound] |  |  |  |  |  | 6.4 | 
13 | CCCN([C@@H]1CCN2CCc3ccccc3[C@@H]2C1)S(C)(=O)=O (relative stereo) [N--(n-Propyl)-N--(1,3,4,6,7,11bα-hexahydro-2H--benzo[a]quinolizin-2β-yl)methanesulphonamide, reference compound] |  |  |  | 100 |  |  | 
14 | COc1ccc(S(=O)(=O)N(C)[C@@H]2CCN3CCc4ccccc4[C@@H]3C2)cc1 (relative stereo) [G, N-Methyl-N-(1,3,4,6,7,11bα-hexahydro-2H-benzo[a]quinolizin-2β-yl)-4-methoxybenzenesulphonamide] | 40 | 316 |  | 7.94 |  |  | 
15 | Cc1ccc(S(=O)(=O)N(C)[C@@H]2CCN3CCc4ccccc4[C@@H]3C2)cc1 (relative stereo) [F, N-Methyl-N-(1,3,4,6,7,11bα-hexahydro-2H-benzo[a]quinolizin-2β-yl)toluene-4-sulphonamide] | 59 | 468 |  | 7.94 |  |  | 
16 | CN([C@@H]1CCN2CCc3ccccc3[C@@H]2C1)S(=O)(=O)c1ccc(Cl)cc1 (relative stereo) [H, N-Methyl-N-(1,3,4,6,7,11bα-hexahydro-2H-benzo[a]quinolizin-2β-yl)-4-chlorobenzenesulphonamide] | 32 | 813 |  | 25.1 |  |  | 
17 | CN([C@@H]1CCN2CCc3ccccc3[C@@H]2C1)S(C)(=O)=O (relative stereo) [A, N-Methyl-N-(1,3,4,6,7,11bα-hexahydro-2H-benzo[a]quinolizin-2β-yl)methanesulphonamide] | 56 | 1120 | inhibited the hyperglycaemia | 20 | inhibit the aggregation |  | do not possess substantial hypotensive activity
18 | CCS(=O)(=O)NC1CCN2CCc3ccccc3C2C1 (centres unmarked) [2βethanesulphonamido-1,3,4,6,7,11b-hexahydro-2H--benzo[a]quinolizine, reference compound] |  |  |  |  |  | 5.3 | 
19 | CCS(=O)(=O)N(C)[C@@H]1CCN2CCc3ccccc3[C@@H]2C1 (relative stereo) [B, N-Methyl-N-(1,3,4,6,7,11bα-hexahydro-2H-benzo[a]quinolizin-2β-yl)ethanesulphonamide] | 34 | 676 |  | 20 |  |  | 
20 | S=C(Nc1ccccc1)NC1CCN2CCc3ccccc3C2C1 (centres unmarked) [1-(1,3,4,6,7,11b-hexahydro-2H--benzo[a]quinolizin-2yl)-3-phenylthiourea, reference compound] |  |  |  | 2510 |  |  | 
